Structures are written as SMILES. Where “and” joins values, the source holds several entries; their conditions need not be identical. Identical values can stand only once. Toxic doses and inconclusive results are not listed.

These results are taken from PubChem BioAssay AID248 (DTP/NCI, 2004).

The experiment concerns L1210 leukemia ip in BDF1 mice, survival T/C. Description: NCI In Vivo Anticancer Drug Screen. Data for tumor model L1210 Leukemia (intraperitoneal) in B6D2F1 (BDF1) mice. As to conditions: endpoint: mean survival time, higher = longer survival. The procedure, abridged: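 Each compound was tested against a transplantable tumor grown in mice. The endpoint was survival, with treated animals benchmarked against vehicle controls as a simple ratio.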

Setting [1] is: dose: 100.0 mg/kg/injection, schedule: Q01DX001 (ip), vehicle: saline.
Where [2] appears, read: dose: 200.0 mg/kg/injection, schedule: Q01DX001 (ip), vehicle: saline.
[3] abbreviates: dose: 400.0 mg/kg/injection, schedule: Q01DX001 (ip), vehicle: saline.
Setting [4] is: dose: 100.0 mg/kg/injection, schedule: Q01DX009 (ip), vehicle: Klucel (hydroxypropylcellulose) (HPC).
Setting [5] is: dose: 100.0 mg/kg/injection, schedule: Q04DX003 (ip), vehicle: Klucel (hydroxypropylcellulose) (HPC).
[6] abbreviates: dose: 200.0 mg/kg/injection, schedule: Q01DX009 (ip), vehicle: Klucel (hydroxypropylcellulose) (HPC).
Where [7] appears, read: dose: 200.0 mg/kg/injection, schedule: Q04DX003 (ip), vehicle: Klucel (hydroxypropylcellulose) (HPC).
Setting [8] is: dose: 400.0 mg/kg/injection, schedule: Q01DX009 (ip), vehicle: Klucel (hydroxypropylcellulose) (HPC).
[9] abbreviates: dose: 400.0 mg/kg/injection, schedule: Q04DX003 (ip), vehicle: Klucel (hydroxypropylcellulose) (HPC).
The mark [10] stands for this setting: dose: 50.0 mg/kg/injection, schedule: Q01DX009 (ip), vehicle: saline.
The mark [11] stands for this setting: dose: 100.0 mg/kg/injection, schedule: Q01DX009 (ip), vehicle: saline.
Where [12] appears, read: dose: 200.0 mg/kg/injection, schedule: Q01DX009 (ip), vehicle: saline.
The mark [13] stands for this setting: dose: 50.0 mg/kg/injection, schedule: Q04DX002 (ip), vehicle: saline with Tween-80.
The mark [14] stands for this setting: dose: 100.0 mg/kg/injection, schedule: Q04DX002 (ip), vehicle: saline with Tween-80.
Where [15] appears, read: dose: 100.0 mg/kg/injection, schedule: Q04DX003 (ip), vehicle: saline.
Where [16] appears, read: dose: 200.0 mg/kg/injection, schedule: Q04DX003 (ip), vehicle: saline.
The mark [17] stands for this setting: dose: 100.0 mg/kg/injection, schedule: Q04DX002 (ip), vehicle: saline.

As for `CC(C1CCC2CCC3CCCC1C32)C1CCC2CCC3CCCC1C32` (stereo unspecified), the T/C runs as follows: (dose: 100.0 mg/kg/injection, schedule: Q01DX001 (ip), vehicle: other) 99 % of control; (dose: 200.0 mg/kg/injection, schedule: Q01DX001 (ip), vehicle: other) 103 % of control; (dose: 400.0 mg/kg/injection, schedule: Q01DX001 (ip), vehicle: other) 101 % of control.
Regarding `[O-][n+]1ccccc1CCSCCc1cccc[n+]1[O-]`, the T/C is 101 % of control under setting [1], 88 % of control under setting [2] and 97 % of control under setting [3].
For the compound `CCC(C)(C)N`, the T/C runs as follows: under setting [1], 91 % of control; under setting [2], 97 % of control; under setting [3], 101 % of control.
For `ClC1OC(Cl)(Cl)C(Cl)(Cl)OC1(Cl)Cl` (stereo unspecified), the T/C under setting [4] was 103 % of control; the T/C under setting [5] was 107 % of control; the T/C under setting [6] is 93 % of control; the T/C under setting [7] is 94 % of control; the T/C under setting [8] is 101 % of control; the T/C under setting [9] is 96 % of control.
`CCCCC(CC)COC(=O)CC(CC(=O)OCC(CC)CCCC)C(=O)OCC(CC)CCCC` (stereo unspecified): the T/C was 111 % of control under setting [10], 97 % of control under setting [11] and 92 % of control under setting [12].
For `Nc1ncnc2c1ncn2C1OC(CF)C(O)C1O` (stereo unspecified) the same measures were 101 % of control, 100 % of control and 114 % of control.
As to `O=C(Nc1ccc(S(=O)(=O)F)cc1)/C(=C/c1ccc([N+](=O)[O-])cc1)CCc1ccccc1`, the T/C was 105 % of control (dose: 100.0 mg/kg/injection, schedule: Q04DX003 (ip), vehicle: saline with Tween-80); 97 % of control (dose: 200.0 mg/kg/injection, schedule: Q04DX003 (ip), vehicle: saline with Tween-80); 94 % of control (dose: 400.0 mg/kg/injection, schedule: Q04DX003 (ip), vehicle: saline with Tween-80).
For `Cc1ccc(S(=O)(=O)OCCN(CCOS(=O)(=O)c2ccc(C)cc2)c2cc(OCc3ccccc3)cc(OCc3ccccc3)c2)cc1`, the T/C is 100 % of control (dose: 25.0 mg/kg/injection, schedule: Q01DX009 (ip), vehicle: water); 121 % of control (dose: 50.0 mg/kg/injection, schedule: Q01DX009 (ip), vehicle: water); 89 % of control (dose: 100.0 mg/kg/injection, schedule: Q01DX009 (ip), vehicle: water); 95 % of control (dose: 400.0 mg/kg/injection, schedule: Q01DX009 (ip), vehicle: water).
Regarding `C#CC(OC(=O)NC(C(=O)OC)C(C)C)(c1ccccc1)c1ccccc1` (stereo unspecified), the T/C was 100 % of control under setting [13]; 105 % of control and 114 % of control under setting [14]; 122 % of control (dose: 200.0 mg/kg/injection, schedule: Q04DX002 (ip), vehicle: saline with Tween-80).
For the compound `O=C1C2(c3ccccc3)CC(Cc3ccccc3)C1(c1ccccc1)C(c1ccccc1)=C2c1ccccc1` (stereo unspecified), the T/C reads like this: (dose: 50.0 mg/kg/injection, schedule: Q01DX001 (ip), vehicle: carboxymethylcellulose (CMC)) 100 % of control; (dose: 100.0 mg/kg/injection, schedule: Q01DX001 (ip), vehicle: carboxymethylcellulose (CMC)) 97 % of control; (dose: 200.0 mg/kg/injection, schedule: Q01DX001 (ip), vehicle: carboxymethylcellulose (CMC)) 111 % of control; (dose: 400.0 mg/kg/injection, schedule: Q01DX001 (ip), vehicle: carboxymethylcellulose (CMC)) 95 % of control.
In the case of `CC/C(CC(C)CC)=N\O` (stereo unspecified), the T/C reads like this: under setting [11], 101 % of control; under setting [15], 93 % of control; under setting [12], 101 % of control; under setting [16], 98 % of control; (dose: 400.0 mg/kg/injection, schedule: Q01DX009 (ip), vehicle: saline) 101 % of control; (dose: 400.0 mg/kg/injection, schedule: Q04DX003 (ip), vehicle: saline) 91 % of control.
For the compound `CCCCC#C/C(C)=N\Nc1ccc([N+](=O)[O-])cc1[N+](=O)[O-]`, the T/C reads like this: under setting [13], 98 % of control; under setting [14], 173 % of control.
`CNCCN1CCCC1`: the T/C runs as follows: under setting [10], 95 % of control; under setting [11], 103 % of control; under setting [15], 102 % of control; under setting [12], 101 % of control; under setting [16], 109 % of control.
As to `CC(=O)CC(=O)N(N=O)c1ccccc1C`, the T/C runs as follows: under setting [1], 104 % of control; under setting [2], 95 % of control.
As for `O=[N+]([O-])c1ccc(N2CCN=N2)cc1`, the T/C (dose: 8.0 mg/kg/injection, schedule: Q01DX015 (ip), vehicle: saline) was 107 % of control; the T/C (dose: 16.0 mg/kg/injection, schedule: Q01DX015 (ip), vehicle: saline) is 110 % of control; the T/C (dose: 32.0 mg/kg/injection, schedule: Q01DX015 (ip), vehicle: saline) was 113 % of control; the T/C (dose: 64.0 mg/kg/injection, schedule: Q01DX015 (ip), vehicle: saline) is 116 % of control; the T/C under setting [1] was 103 % of control; the T/C (dose: 100.0 mg/kg/injection, schedule: Q04DX003 (ip), vehicle: saline sonified) was 104 % of control. Further, the T/C under setting [3] is 111 % of control.
For the compound `O=c1[nH]nc(-c2ccc(Br)cc2)s1`, the T/C was 101 % of control under setting [5], 95 % of control under setting [7] and 98 % of control under setting [9].
For `CCCC(C)C1(CCC)C(=O)NC(=S)NC1=O` (stereo unspecified), the T/C (dose: 75.0 mg/kg/injection, schedule: Q01DX001 (ip), vehicle: saline) was 94 % of control; the T/C (dose: 150.0 mg/kg/injection, schedule: Q01DX001 (ip), vehicle: saline) was 98 % of control; the T/C (dose: 300.0 mg/kg/injection, schedule: Q01DX001 (ip), vehicle: saline) is 92 % of control.
For `CC1(C(=O)O)COC(=O)N1` (stereo unspecified), the T/C is 96 % of control (dose: 25.0 mg/kg/injection, schedule: Q04DX002 (ip), vehicle: saline); 104 % of control (dose: 50.0 mg/kg/injection, schedule: Q04DX002 (ip), vehicle: saline); 86 % of control under setting [17].
Turning to `C1CC2CC2CCC2CC12` (stereo unspecified), the T/C is, setting by setting: under setting [4], 104 % of control; under setting [5], 101 % of control; under setting [6], 95 % of control; under setting [7], 95 % of control; under setting [8], 102 % of control; under setting [9], 101 % of control.
As to `CCCCCCCCC(=O)N1C(C)CCCC1C` (stereo unspecified), the T/C was 111 % of control under setting [17]; 114 % of control (dose: 200.0 mg/kg/injection, schedule: Q04DX002 (ip), vehicle: saline); 100 % of control (dose: 400.0 mg/kg/injection, schedule: Q04DX002 (ip), vehicle: saline).
As for `NC1(C(=O)O)CC2CC1C2` (stereo unspecified), the T/C runs as follows: (dose: 100.0 mg/kg/injection, schedule: Q04DX002 (ip), vehicle: other) 95 % of control; (dose: 200.0 mg/kg/injection, schedule: Q04DX002 (ip), vehicle: other) 106 % of control; (dose: 400.0 mg/kg/injection, schedule: Q04DX002 (ip), vehicle: other) 92 % of control.
Regarding `NC(N)=N/N=C\c1ccc(CCC(=O)O)cc1`, the T/C by setting is: (dose: 15.0 mg/kg/injection, schedule: Q01DX Z (ip), vehicle: carboxymethylcellulose (CMC)) 97 % of control; (dose: 30.0 mg/kg/injection, schedule: Q01DX Z (ip), vehicle: carboxymethylcellulose (CMC)) 97 % of control; (dose: 60.0 mg/kg/injection, schedule: Q01DX Z (ip), vehicle: carboxymethylcellulose (CMC)) 101 % of control; (dose: 120.0 mg/kg/injection, schedule: Q01DX Z (ip), vehicle: carboxymethylcellulose (CMC)) 97 % of control; (dose: 120.0 mg/kg/injection, schedule: Q01DX Z (oral), vehicle: carboxymethylcellulose (CMC)) 113 % of control; (dose: 240.0 mg/kg/injection, schedule: Q01DX Z (oral), vehicle: carboxymethylcellulose (CMC)) 112 % of control. For the same compound, the T/C (dose: 480.0 mg/kg/injection, schedule: Q01DX Z (oral), vehicle: carboxymethylcellulose (CMC)) is 109 % of control and the T/C (dose: 960.0 mg/kg/injection, schedule: Q01DX Z (oral), vehicle: carboxymethylcellulose (CMC)) was 109 % of control.
